Reference: patent US20260152509A1, “DELIVERY OF THERAPEUTIC ALKALOID COMPOUNDS” (priority 2021, published 2026)
pIC50: −log10 of the molar value. Read-outs that look alike come from different tables or passages of the source.

Legend:
[1] = target: T1, SERT (Homo sapiens, UniProt P31645); assay: SERT inhibition, Neurotransmitter Transportation Fluorescence assay; format: cell-based; details: 30 minutes at 37° C.
T1 construct: expressed in transfected cells
Protocol: SERT inhibition was measured using a Neruotransmitter Transportation Fluorescence assay. […] Compounds were prepared by in assay buffer (20 mM HEPES, 0.1% BSA). The compounds were added to the plated cells and incubated for 30 minutes at 37° C. 25 μL of dye solution (Molecular Devices Neurotransmitter Transporter Uptake Assay Kit) was added per well and incubated for 30 minutes at 37° C. The plates were then read on a plate reader.

[2] = format: physicochemical; details: for Conversion (%) / Notes (stability): 0.5 mM
Protocol: The hydrolysis kinetics was under a certain temperature and measured by LCMS at a certain time interval. The corresponding LCMS chromatograms were recorded and the conversions were calculated. The hydrolysis conditions and the data were summarized in below table. LCMS spectra were obtained using Agilent 1200\G1956A or SHIMADZU LCMS-2020. Standard LCMS conditions were as follows (running time 1.55 minutes):
Acidic condition: Mobile Phase A: 0.0375% TFA in water (v/v). Mobile Phase B: 0.01875% TFA in acetonitrile (v/v); Column: Kinetex EVO C18 30*2.1 mm, 5 μm.
Basic condition: Mobile Phase A: 0.025% NH3·H2O in water (v/v). Mobile Phase B: Acetonitrile; Column: Kinetex EVO C18 2.1×30 mm, 5 μm.
Conversion (%)=peak area 1/(peak area 1+peak area 2)*100%, peak area 1 is the integration of hydrolyzed product, peak area 2 is the integration of starting material.

[3] = Pharmacokinetics of 047 and 016 after single oral 047 in mice; details: analyte after single PO 047 75 mg/kg, male C57BL/6 mice
Protocol: Total twelve male mice were used in this study. Animals were administered through oral route with solution formulation of 047 at 75 mg/kg dose. The formulation vehicle used was normal saline. Blood samples (approximately 60 μL) were collected under light isoflurane anesthesia from a set of two mice at 0.25, 0.5, 1, 2, 4 and 8 h. The blood samples were collected at each time point in labeled micro centrifuge tube containing K2EDTA as anticoagulant and PMSF (100 mM; 10 μL/mL of blood) as a stabilizer. Plasma samples were separated by centrifugation of whole blood and stored below −70° C. until bioanalysis. Following blood collection, immediately animals were sacrificed followed by abdominal vena-cava was cut open and whole body was perfused from heart using 10 mL of normal saline. Brain samples were collected from set of two mice at 0.25, 0.5, 1, 2, 4 and 8 h. After isolation, brain samples were rinsed three times in ice cold normal saline (for 5-10 seconds/rinse using ˜10-20 mL normal saline in disposable petri dish for each rinse) and dried on blotting paper. Brain samples were homogenized using ice-cold phosphate buffer saline (pH-7.4) and PMSF (100 mM; 10 μL/mL of blood) as a stabilizer. Brain homogenates were stored below −70±10° C. until analysis. Total homogenate volume was three times of the brain weight.
Plasma and brain samples were quantified by fit-for-purpose LC-MS/MS method.

[4] = pH = 7.4, 25° C., PBS (20 mM), 0-24 h
[5] = pH = 2.0, 25° C., 0.01M HCl, 0-24 h
[6] = pH = 2.0, 37° C., 0.01M HCl, 0-24 h

T1 sequence (P31645 whole entry, species assumed): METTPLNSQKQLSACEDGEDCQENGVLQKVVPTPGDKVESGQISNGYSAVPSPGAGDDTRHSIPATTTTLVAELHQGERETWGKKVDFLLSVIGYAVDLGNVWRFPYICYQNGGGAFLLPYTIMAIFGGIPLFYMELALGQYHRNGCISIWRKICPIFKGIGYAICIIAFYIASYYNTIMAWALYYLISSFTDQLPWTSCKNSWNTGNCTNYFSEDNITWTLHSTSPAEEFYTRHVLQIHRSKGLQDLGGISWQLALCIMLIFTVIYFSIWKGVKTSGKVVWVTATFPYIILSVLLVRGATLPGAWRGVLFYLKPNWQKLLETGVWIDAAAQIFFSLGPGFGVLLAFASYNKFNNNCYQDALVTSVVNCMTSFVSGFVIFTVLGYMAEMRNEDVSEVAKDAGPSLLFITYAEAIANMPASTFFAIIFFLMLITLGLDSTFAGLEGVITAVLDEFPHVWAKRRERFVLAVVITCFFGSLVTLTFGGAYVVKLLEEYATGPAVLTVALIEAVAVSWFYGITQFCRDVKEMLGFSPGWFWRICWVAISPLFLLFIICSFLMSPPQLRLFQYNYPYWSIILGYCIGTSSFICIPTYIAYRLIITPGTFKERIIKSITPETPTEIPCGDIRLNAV

Question: With `COc1ccc([C@]23C=CC4(C[C@H]2N(C)CC3)OCCO4)cc1OC` [Compound 048, (3′aS,7′aR)-3′a-(3,4-dimethoxyphenyl)-1′-methyl-spiro[1,3-dioxolane-2,6′-2,3,7,7a-tetrahydroindole]] as the molecule, how does the pIC50 [1] read?
Answer: Its pIC50 is 6.03.

Question: For `COc1ccc(C23C=CC(=O)CC2N(C)CC3)cc1OC` (racemic) [Compound 016, 3a-(3,4-dimethoxyphenyl)-1-methyl-2,3,7,7a-tetrahydroindol-6-one, reference compound], which “further hydrolysis (in words)” value ([2]; pH 2.0 in 0.01 M HCl to pH 7.4 in 20 mM PBS, 25° C. to 40° C.) is on record?
Answer: The value was “did not further hydrolyze”.

Question: And the “Conversion (%)” value [2, 4]?
Answer: Its value is 0%.

Question: And the “Notes (stability)” value [2, 4]?
Answer: Its value is “Stable”.

Question: What about the “Brain concentrations quantifiable up to” value [3] of the same molecule?
Answer: Its value is “up to 4 h”.

Question: Which “Conversion (%)” value [2, 5] does the source give for `COc1ccc([C@@]23C=CC4(C[C@@H]2N(C)CC3)SCCS4)cc1OC` (stereo in doubt) [Compound 017, 3′a-(3,4-dimethoxyphenyl)-1′-methyl-spiro[1,3-dithiolane-2,6′-2,3,7,7a-tetrahydroindole]] here?
Answer: The value was 0%.

Question: And the “Notes (stability)” value [2, 5]?
Answer: The value was “Stable”.

Question: What about the “Conversion (%)” value [2, 6] of the same molecule?
Answer: Its value is 0%.

Question: And the “Notes (stability)” value [2, 6]?
Answer: The value was “Stable”.

Question: What does the source list for `COc1ccc([C@@]23C=CC4(C[C@@H]2N(C)CC3)OCCO4)cc1OC` [Compound 047, (3′aR,7′aS)-3′a-(3,4-dimethoxyphenyl)-1′-methyl-spiro[1,3-dioxolane-2,6′-2,3,7,7a-tetrahydroindole]]?
Answer: pIC50 [1]: 6.24; Brain concentrations quantifiable up to [3]: up to 4 h

Question: What does the source list for `COc1ccc([C@@]23C=CC4(C[C@@H]2N(C)CC3)OCCO4)cc1OC` [Compound 015, (3′aR,7′aS)-3′a-(3,4-dimethoxyphenyl)-1′-methyl-spiro[1,3-dioxolane-2,6′-2,3,7,7a-tetrahydroindole]]?
Answer: Conversion (%) ([2]; pH = 2.0, 25° C., 0.01M HCl, 1 min): 19%; Conversion (%) ([2]; pH = 2.0, 25° C., 0.01M HCl, 10 min): 46%; Conversion (%) ([2]; pH = 2.0, 25° C., 0.01M HCl, 30 min): 66%; Conversion (%) ([2]; pH = 2.0, 25° C., 0.01M HCl, 120 min): 99%

Question: With `COc1ccc([C@@]23C=CC4(C[C@@H]2N(C)CC3)SCCS4)cc1OC` [Compound 049, (3′aR,7′aS)-3′a-(3,4-dimethoxyphenyl)-1′-methyl-spiro[1,3-dithiolane-2,6′-2,3,7,7a-tetrahydroindole]] as the molecule, how does the pIC50 [1] read?
Answer: The pIC50 was 6.80.

Question: Which “conversion to mesembrenone (in words)” value ([2]; pH 2) does the source give for `COc1ccc(C23C=CC4(CC2N(C)CC3)OCCO4)cc1OC` (stereo not drawn) [Compound 015, (3′aR,7′aS)-3′a-(3,4-dimethoxyphenyl)-1′-methyl-spiro[1,3-dioxolane-2,6′-2,3,7,7a-tetrahydroindole]] here?
Answer: The value was “converted to mesembrenone”.

Question: With `COc1ccc([C@]23C=CC4(C[C@H]2N(C)CC3)SCCS4)cc1OC` [Compound 050, (3′aS,7′aR)-3′a-(3,4-dimethoxyphenyl)-1′-methyl-spiro[1,3-dithiolane-2,6′-2,3,7,7a-tetrahydroindole]] as the molecule, how does the pIC50 [1] read?
Answer: The pIC50 was 6.39.
